# Assay results: PubChem BioAssay AID330 (DTP/NCI, 2004)
# Where “and” joins values, the source holds several entries; their conditions need not be identical. Equal values may be shown once. Toxic doses and inconclusive results are not listed.
# Tested on: P388 leukemia ip, CD2F1 mice, survival T/C
# Assay: NCI In Vivo Anticancer Drug Screen. Data for tumor model P388 Leukemia (intraperitoneal) in CD2F1 (CDF1) mice
# Settings: endpoint: median survival time, higher = longer survival
# Method in brief: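 Mice carrying the transplanted tumor received test compound or vehicle. Survival was recorded in each group, and the value is the treated-group measurement divided by that of the vehicle-treated control group.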
# [1] = dose: 50.0 mg/kg/injection, schedule: Q01DX009 (ip), vehicle: Klucel (hydroxypropylcellulose) (HPC)
# [2] = dose: 50.0 mg/kg/injection, schedule: Q01DX009 (ip), vehicle: saline with Tween-80
# [3] = dose: 100.0 mg/kg/injection, schedule: Q01DX009 (ip), vehicle: saline with Tween-80
# [4] = dose: 200.0 mg/kg/injection, schedule: Q01DX009 (ip), vehicle: saline with Tween-80
# [5] = dose: 6.25 mg/kg/injection, schedule: Q01DX009 (ip), vehicle: Klucel (hydroxypropylcellulose) (HPC)
# [6] = dose: 12.5 mg/kg/injection, schedule: Q01DX009 (ip), vehicle: Klucel (hydroxypropylcellulose) (HPC)
# [7] = dose: 50.0 mg/kg/injection, schedule: Q01DX005 (ip), vehicle: Klucel (hydroxypropylcellulose) (HPC)
# [8] = dose: 100.0 mg/kg/injection, schedule: Q01DX005 (ip), vehicle: Klucel (hydroxypropylcellulose) (HPC)
# [9] = dose: 200.0 mg/kg/injection, schedule: Q01DX005 (ip), vehicle: Klucel (hydroxypropylcellulose) (HPC)
# [10] = dose: 50.0 mg/kg/injection, schedule: Q01DX009 (ip), vehicle: saline
# [11] = dose: 100.0 mg/kg/injection, schedule: Q01DX009 (ip), vehicle: saline
# [12] = dose: 200.0 mg/kg/injection, schedule: Q01DX009 (ip), vehicle: saline
# [13] = dose: 12.5 mg/kg/injection, schedule: Q01DX009 (ip), vehicle: saline with Tween-80
# [14] = dose: 25.0 mg/kg/injection, schedule: Q01DX009 (ip), vehicle: saline with Tween-80
# [15] = dose: 25.0 mg/kg/injection, schedule: Q01DX009 (ip), vehicle: Klucel (hydroxypropylcellulose) (HPC)
# [16] = dose: 100.0 mg/kg/injection, schedule: Q04DX003 (ip), vehicle: saline with Tween-80
# [17] = dose: 25.0 mg/kg/injection, schedule: Q01DX005 (ip), vehicle: saline with Tween-80
# [18] = dose: 50.0 mg/kg/injection, schedule: Q01DX005 (ip), vehicle: saline with Tween-80
smiles,measurement,setting,value
COc1ccc(Cl)cc1NC(=O)c1ccccc1F,T/C,[1],120 % of control
same,T/C,"dose: 100.0 mg/kg/injection, schedule: Q01DX009 (ip), vehicle: Klucel (hydroxypropylcellulose) (HPC)",104 % of control
same,T/C,"dose: 200.0 mg/kg/injection, schedule: Q01DX009 (ip), vehicle: Klucel (hydroxypropylcellulose) (HPC)",118 % of control
NC(=S)c1ccc(C2Nc3ccccc3N2)cc1,T/C,"dose: 25.0 mg/kg/injection, schedule: Q04DX002 (ip), vehicle: saline with Tween-80",95 % of control
same,T/C,"dose: 50.0 mg/kg/injection, schedule: Q04DX002 (ip), vehicle: saline with Tween-80",92 % of control
same,T/C,"dose: 100.0 mg/kg/injection, schedule: Q04DX002 (ip), vehicle: saline with Tween-80",87 % of control and 91 % of control
O=C(Nc1cccc2c(OC(=O)C(Cl)Cl)c(N=Nc3ccc(S(=O)(=O)Nc4nccs4)cc3)cc(N=Nc3ccc(S(=O)(=O)Nc4nccs4)cc3)c12)C(Cl)Cl,T/C,[2],109 % of control and 100 % of control and 104 % of control
same,T/C,[3],108 % of control and 103 % of control and 106 % of control
same,T/C,[4],107 % of control
CN(C(=S)S(C)(=O)=O)c1ccccc1,T/C,"dose: 3.12 mg/kg/injection, schedule: Q01DX009 (ip), vehicle: Klucel (hydroxypropylcellulose) (HPC)",102 % of control
same,T/C,[5],100 % of control
same,T/C,[6],86 % of control
CC1(C)CC(=O)N(CN2CCCCC2)C(=O)C1,T/C,"dose: 100.0 mg/kg/injection, schedule: Q04DX002 (ip), vehicle: Klucel (hydroxypropylcellulose) (HPC)",114 % of control
same,T/C,"dose: 200.0 mg/kg/injection, schedule: Q04DX002 (ip), vehicle: Klucel (hydroxypropylcellulose) (HPC)",120 % of control
O=c1oc(-c2nc3sc4c(c3c(=O)o2)CCCC4)nc2sc3c(c12)CCCC3,T/C,[7],100 % of control
same,T/C,[8],100 % of control
same,T/C,[9],93 % of control
CS(=O)(=O)N(C=O)c1ccccc1,T/C,[10],110 % of control
same,T/C,[11],100 % of control
same,T/C,[12],96 % of control
Nc1ncc([N+](=O)[O-])c(Cl)n1,T/C,[13],105 % of control
same,T/C,[14],105 % of control
same,T/C,[2],105 % of control
CC(=O)C1CC[C@@]2(C)C(CC[C@H]3[C@@H]4CCC[C@H]([C@H](C)O)[C@@]4(C)CC[C@@H]32)C1 (stereo not given in full),T/C,[6],91 % of control
same,T/C,[15],91 % of control
same,T/C,[1],88 % of control
CC(NC(=O)c1cccc2c1Oc1ccccc1S2)C(=O)O (stereo not given),T/C,"dose: 50.0 mg/kg/injection, schedule: Q04DX002 (ip), vehicle: saline",104 % of control
same,T/C,"dose: 100.0 mg/kg/injection, schedule: Q04DX002 (ip), vehicle: saline",98 % of control
same,T/C,"dose: 200.0 mg/kg/injection, schedule: Q04DX002 (ip), vehicle: saline with Tween-80",93 % of control
same,T/C,"dose: 200.0 mg/kg/injection, schedule: Q04DX002 (ip), vehicle: saline",99 % of control
O=C(N=Nc1c(O)[nH]c2c(Cl)cc(Cl)cc12)C(=O)Nc1cccc(C(F)(F)F)c1,T/C,"dose: 6.25 mg/kg/injection, schedule: Q01DX009 (ip), vehicle: saline with Tween-80",95 % of control
same,T/C,[13],93 % of control
same,T/C,[14],95 % of control
COc1ccc([N+]2=Cc3cc(OC)c(OC)cc3CC2)cc1OC,T/C,"dose: 6.25 mg/kg/injection, schedule: Q01DX009 (ip), vehicle: water",115 % of control
same,T/C,"dose: 12.5 mg/kg/injection, schedule: Q01DX009 (ip), vehicle: water",108 % of control
same,T/C,"dose: 25.0 mg/kg/injection, schedule: Q01DX009 (ip), vehicle: water",108 % of control
same,T/C,"dose: 50.0 mg/kg/injection, schedule: Q01DX009 (ip), vehicle: water",103 % of control and 108 % of control
same,T/C,"dose: 100.0 mg/kg/injection, schedule: Q01DX009 (ip), vehicle: water",104 % of control and 88 % of control
CN1CCCCC1CC(O)c1ccccc1 (stereo not given),T/C,"dose: 12.5 mg/kg/injection, schedule: Q01DX005 (ip), vehicle: Klucel (hydroxypropylcellulose) (HPC)",103 % of control
same,T/C,"dose: 25.0 mg/kg/injection, schedule: Q01DX005 (ip), vehicle: Klucel (hydroxypropylcellulose) (HPC)",105 % of control
same,T/C,[7],100 % of control
Cc1cccc2c(=O)n3c(cc12)-c1[nH]c2ccccc2c1CC3,T/C,"dose: 60.0 mg/kg/injection, schedule: Q01DX005 (ip), vehicle: Klucel (hydroxypropylcellulose) (HPC)",103 % of control
same,T/C,"dose: 120.0 mg/kg/injection, schedule: Q01DX005 (ip), vehicle: Klucel (hydroxypropylcellulose) (HPC)",97 % of control
same,T/C,"dose: 240.0 mg/kg/injection, schedule: Q01DX005 (ip), vehicle: Klucel (hydroxypropylcellulose) (HPC)",96 % of control
Cc1nc2c(c(-c3ccc(Cl)cc3)n1)Cc1c(ccc3ccccc13)O2,T/C,[10],107 % of control and 95 % of control
same,T/C,[11],100 % of control
same,T/C,[12],100 % of control and 94 % of control
CN(C)P1(=S)OCC(C(C)(C)C)CN1C (stereo not given),T/C,[16],102 % of control
same,T/C,"dose: 200.0 mg/kg/injection, schedule: Q04DX003 (ip), vehicle: saline with Tween-80",112 % of control
OC1CC2CCC(C1)N2c1ccccc1 (stereo not given),T/C,"dose: 50.0 mg/kg/injection, schedule: Q01DX005 (ip), vehicle: saline",115 % of control
same,T/C,"dose: 100.0 mg/kg/injection, schedule: Q01DX005 (ip), vehicle: saline",97 % of control
O=c1[nH]c(=O)n2c(c1-c1ccccc1)OC(CBr)C2 (stereo not given),T/C,[2],98 % of control
same,T/C,[3],98 % of control
same,T/C,[4],86 % of control
CCOc1ccc(C(C)c2cc3c(cc2OC)OCO3)c(C)c1 (stereo not given),T/C,[7],103 % of control
same,T/C,[8],106 % of control
same,T/C,[9],106 % of control
COc1ccc2c(c1)C(NCCCCCCNc1cc(C)[n+](C)c3ccc(OC)cc13)=CC(C)N2C (stereo not given),T/C,[17],113 % of control
same,T/C,[18],118 % of control
O=C1NC(c2ccccc2)N=C2Oc3ccccc3C=C12 (stereo not given),T/C,"dose: 3.12 mg/kg/injection, schedule: Q01DX009 (ip), vehicle: saline",97 % of control
same,T/C,"dose: 6.25 mg/kg/injection, schedule: Q01DX009 (ip), vehicle: saline",97 % of control
same,T/C,[13],115 % of control
same,T/C,"dose: 12.5 mg/kg/injection, schedule: Q01DX009 (ip), vehicle: saline",106 % of control
COC(=O)CCC(=O)C(C#N)c1ccc(CC#N)cc1 (stereo not given),T/C,"dose: 12.5 mg/kg/injection, schedule: Q01DX005 (ip), vehicle: saline with Tween-80",96 % of control
same,T/C,[17],98 % of control
same,T/C,[18],102 % of control and 95 % of control
C=CCSc1nc2ccc(NC(C)=O)cc2s1,T/C,[5],104 % of control
same,T/C,[6],108 % of control
same,T/C,[15],94 % of control
CCCOP(=S)(N1CC1C)N1CC1(C)C (stereo not given),T/C,"dose: 12.5 mg/kg/injection, schedule: Q04DX003 (ip), vehicle: saline with Tween-80",122 % of control
same,T/C,"dose: 50.0 mg/kg/injection, schedule: Q04DX003 (ip), vehicle: saline with Tween-80",154 % of control
same,T/C,"dose: 66.0 mg/kg/injection, schedule: Q04DX003 (ip), vehicle: saline with Tween-80",186 % of control
same,T/C,[3],113 % of control
same,T/C,[16],227 % of control
same,T/C,"dose: 150.0 mg/kg/injection, schedule: Q04DX003 (ip), vehicle: saline with Tween-80",118 % of control
CC(=O)O/N=C(C)/C(C)=N/Nc1ccccc1,T/C,[18],93 % of control
same,T/C,"dose: 100.0 mg/kg/injection, schedule: Q01DX005 (ip), vehicle: saline with Tween-80",89 % of control
same,T/C,"dose: 200.0 mg/kg/injection, schedule: Q01DX005 (ip), vehicle: saline with Tween-80",87 % of control
Nc1nc2c(C(=O)NCc3cccs3)nnn2c2cccc(Cl)c12,T/C,"dose: 60.0 mg/kg/injection, schedule: Q01DX005 (ip), vehicle: saline with Tween-80",96 % of control
same,T/C,"dose: 120.0 mg/kg/injection, schedule: Q01DX005 (ip), vehicle: saline with Tween-80",92 % of control
same,T/C,"dose: 240.0 mg/kg/injection, schedule: Q01DX005 (ip), vehicle: saline with Tween-80",95 % of control
COc1cc2c(cc1OC)-c1c3c(cc4c1[C@@H](C2)N(C)CC4)OCO3,T/C,"dose: 12.5 mg/kg/injection, schedule: Q01DX009 (ip), vehicle: distilled water + Tween-80",107 % of control
same,T/C,[13],106 % of control
same,T/C,"dose: 25.0 mg/kg/injection, schedule: Q01DX009 (ip), vehicle: distilled water + Tween-80",107 % of control
same,T/C,[14],100 % of control
same,T/C,"dose: 50.0 mg/kg/injection, schedule: Q01DX009 (ip), vehicle: distilled water + Tween-80",116 % of control
same,T/C,[2],102 % of control
CCOc1cc2c(cc1C(C)c1ccc(OCc3ccccc3)c(OC)c1)OCO2 (stereo not given),T/C,[7],97 % of control
same,T/C,[8],97 % of control
same,T/C,[9],92 % of control
